Measurements: patent publication US20070249590A1, “Substituted indolo[2,3-a]pyrrolo[3,4-c]carbazole compounds useful in treating kinase disorders” (priority 2005, published 2007)

biological target: T1, JAK3 (JH1 and JH2 domain) (Homo sapiens, UniProt P52333); test: JAK3 Kinase Assay (ELISA of peptide substrate phosphorylation); format: biochemical; conditions: purified JAK3 enzyme, 10 μM ATP, biotinylated peptide substrate, 1 hour at room temperature
T1 sequence (P52333 521-1111 limits assumed): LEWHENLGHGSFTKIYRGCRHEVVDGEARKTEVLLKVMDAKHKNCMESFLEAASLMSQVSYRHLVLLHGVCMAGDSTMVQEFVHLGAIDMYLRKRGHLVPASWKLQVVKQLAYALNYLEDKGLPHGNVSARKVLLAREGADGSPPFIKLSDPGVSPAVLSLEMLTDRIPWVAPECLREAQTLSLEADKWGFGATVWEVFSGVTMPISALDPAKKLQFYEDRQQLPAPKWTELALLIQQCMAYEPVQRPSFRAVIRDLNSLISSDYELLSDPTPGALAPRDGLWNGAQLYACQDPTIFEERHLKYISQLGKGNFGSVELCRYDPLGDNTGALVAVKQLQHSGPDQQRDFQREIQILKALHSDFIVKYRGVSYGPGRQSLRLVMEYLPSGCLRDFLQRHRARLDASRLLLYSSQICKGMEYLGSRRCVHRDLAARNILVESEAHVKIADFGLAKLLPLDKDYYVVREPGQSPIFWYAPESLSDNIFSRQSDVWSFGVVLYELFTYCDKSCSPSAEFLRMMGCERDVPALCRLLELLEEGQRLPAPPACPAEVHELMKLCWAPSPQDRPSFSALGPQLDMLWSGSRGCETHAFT
In short: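 Sf21-baculovirus-expressed JAK3 (JH1+JH2), glutathione-bead purified, with biotinylated peptide substrate (in buffer containing 10 μM ATP) in HEPES pH 7.5/MgCl2/DTT, 1 h RT. Product was captured on Neutravidin, detected with HRP anti-phosphotyrosine (PY99)/TMB, OD 450/650 nm. Triplicate 16-point half-log series from 200 μM gave IC50; otherwise % inhibition at 1 μM.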

IC50 [nM]	SMILES
80	CC(C)NC(=O)C1(O)Cn2c3ccccc3c3c4c(c5c6ccccc6n(c5c32)CC1O)C(=O)NC4=O (centres unmarked) [Cpd 123, 12,13-[2-(isopropyl-carbamoyl)-2,3-dihydroxy-butan-1,4-yl]-12,13-dihydro-5,7-dioxo-6H-indolo[2,3-a]pyrrolo[3,4-c]carbazole]
55	CN(C)CCCN1CCN(C(=O)C2(O)Cn3c4ccccc4c4c5c(c6c7ccccc7n(c6c43)CC2O)C(=O)NC5=O)CC1 (centres unmarked) [Cpd 126, 12,13-(2-{[4-(3-dimethylamino-prop-1-yl)piperazin-1-yl]carbonyl}-2,3-dihydroxy-butan-1,4-yl)-12,13-dihydro-5,7-dioxo-6H-indolo[2,3-a]pyrrolo[3,4-c]carbazole]
9	O=C1NC(=O)c2c1c1c3ccccc3n3c1c1c2c2ccccc2n1CC(O)(C(=O)O)C(O)C3 (centres unmarked) [Cpd 13, 12,13-(2-carboxy-2,3-dihydroxy-butan-1,4-yl)-12,13-dihydro-5,7-dioxo-6H-indolo[2,3-a]pyrrolo[3,4-c]carbazole]
31	CN(C)CCNC(=O)OC1CCn2c3ccccc3c3c4c(c5c6ccccc6n(c5c32)C1)C(=O)NC4=O (centres unmarked) [Cpd 50, 12,13-{2-[(2-dimethylamino-ethyl)carbamoyloxy]-butan-1,4-yl}-12,13-dihydro-5,7-dioxo-6H-indolo[2,3-a]pyrrolo[3,4-c]carbazole]
54	O=C1NC(=O)c2c1c1c3ccccc3n3c1c1c2c2ccccc2n1CC(O)(C(=O)N1CCOCC1)C(O)C3 (centres unmarked) [Cpd 121, 12,13-[2-(morpholin-4-yl-carbonyl)-2,3-dihydroxy-butan-1,4-yl]-12,13-dihydro-5,7-dioxo-6H-indolo[2,3-a]pyrrolo[3,4-c]carbazole]
180	CN(C)CCN(C)C(=O)OC1Cn2c3ccccc3c3c4c(c5c6ccccc6n(c5c32)CC1O)C(=O)NC4=O (centres unmarked) [Cpd 107, 12,13-(2-{[N-methyl-N-(2-dimethylamino-ethyl)]carbamoyloxy}-3-hydroxy-butan-1,4-yl)-12,13-dihydro-5,7-dioxo-6H-indolo[2,3-a]pyrrolo[3,4-c]carbazole]
127	O=C1NC(=O)c2c1c1c3ccccc3n3c1c1c2c2ccccc2n1CC(OC(=O)N1CCN(CCO)CC1)C(O)C3 (centres unmarked) [Cpd 104, 12,13-(2-{[4-(2-hydroxy-ethyl)piperazin-1-yl]carbonyloxy}-3-hydroxy-butan-1,4-yl)-12,13-dihydro-5,7-dioxo-6H-indolo[2,3-a]pyrrolo[3,4-c]carbazole]
14	CN(C)[C@@H]1CCN(C(=O)OC2CCn3c4ccccc4c4c5c(c6c7ccccc7n(c6c43)C2)C(=O)NC5=O)C1 (stereo partly drawn) [Cpd 74, 12,13-(2-{[(3R)-3-dimethylamino-pyrrolidin-1-yl]carbonyloxy}-butan-1,4-yl)-12,13-dihydro-5,7-dioxo-6H-indolo[2,3-a]pyrrolo[3,4-c]carbazole]
52	COCCNC(=O)C1(O)Cn2c3ccccc3c3c4c(c5c6ccccc6n(c5c32)CC1O)C(=O)NC4=O (centres unmarked) [Cpd 124, 12,13-{2-[(2-methoxy-ethyl)carbamoyl]-2,3-dihydroxy-butan-1,4-yl}-12,13-dihydro-5,7-dioxo-6H-indolo[2,3-a]pyrrolo[3,4-c]carbazole]
27	CN1CCN(C(=O)C2(O)Cn3c4ccccc4c4c5c(c6c7ccccc7n(c6c43)CC2O)C(=O)NC5=O)CC1 (centres unmarked) [Cpd 125, 12,13-{2-[(4-methyl-piperazin-1-yl)carbonyl]-2,3-dihydroxy-butan-1,4-yl}-12,13-dihydro-5,7-dioxo-6H-indolo[2,3-a]pyrrolo[3,4-c]carbazole]

Continued, compound first:

SMILES	IC50 [nM]
O=C1NC(=O)c2c1c1c3ccccc3n3c1c1c2c2ccccc2n1CC(OC(=O)N1CCN(CCN2CCOCC2)CC1)CC3 (centres unmarked) [Cpd 56, 12,13-(2-{[4-(2-morpholin-4-yl-ethyl)piperazin-1-yl]carbonyloxy}-butan-1,4-yl)-12,13-dihydro-5,7-dioxo-6H-indolo[2,3-a]pyrrolo[3,4-c]carbazole]	115
O=C1NCc2c1c1c3cc(/C=C/n4ccnc4)ccc3n3c1c1c2c2ccccc2n1CC(CO)C3 (centres unmarked) [Cpd 220, 3-[(2E)-2-1H-imidazol-1-yl-ethenyl]-12,13-(2-hydroxymethyl-propan-1,3-yl)-6,7,12,13-tetrahydro-5-oxo-5H-indolo[2,3-a]pyrrolo[3,4-c]carbazole]	90
O=C1NC(=O)c2c1c1c3ccccc3n3c1c1c2c2ccccc2n1CC(O)CC3 (centres unmarked) [Cpd 7, 12,13-(2-hydroxy-butan-1,4-yl)-12,13-dihydro-5,7-dioxo-6H-indolo[2,3-a]pyrrolo[3,4-c]carbazole]	5
CN(C)CCSCc1ccc2c(c1)c1c3c(c4c5ccccc5n5c4c1n2CC(O)C(O)C5)CNC3=O (centres unmarked) [Cpd 199, 3-[(2-dimethylamino-ethyl)thiomethyl]-12,13-(2,3-dihydroxy-butan-1,4-yl)-6,7,12,13-tetrahydro-5-oxo-5H-indolo[2,3-a]pyrrolo[3,4-c]carbazole]	309
O=C1NC(=O)c2c1c1c3ccccc3n3c1c1c2c2ccccc2n1CC(OC(=O)N1CCCC1CN1CCCC1)CC3 (centres unmarked) [Cpd 52, 12,13-(2-{[2-(pyrrolidin-1-yl-methyl)pyrrolidin-1-yl]carbonyloxy}-butan-1,4-yl)-12,13-dihydro-5,7-dioxo-6H-indolo[2,3-a]pyrrolo[3,4-c]carbazole]	446
COC(=O)/C1=C/Cn2c3ccccc3c3c4c(c5c6ccccc6n(c5c32)C1)C(=O)NC4=O [Cpd 3, 12,13-(2-methoxycarbonyl-but-2-en-1,4-yl)-12,13-dihydro-5,7-dioxo-6H-indolo[2,3-a]pyrrolo[3,4-c]carbazole]	7
O=C(NC1CCNCC1)OC1Cn2c3ccccc3c3c4c(c5c6ccccc6n(c5c32)CC1O)C(=O)NC4=O (centres unmarked) [Cpd 113, 12,13-[2-(piperidin-4-yl-carbamoyloxy)-3-hydroxy-butan-1,4-yl]-12,13-dihydro-5,7-dioxo-6H-indolo[2,3-a]pyrrolo[3,4-c]carbazole]	47
O=C(NCCCN1CCOCC1)OC1Cn2c3ccccc3c3c4c(c5c6ccccc6n(c5c32)CC1O)C(=O)NC4=O (centres unmarked) [Cpd 88, 12,13-{2-[(3-morpholin-4-yl-prop-1-yl)carbamoyloxy]-3-hydroxy-butan-1,4-yl}-12,13-dihydro-5,7-dioxo-6H-indolo[2,3-a]pyrrolo[3,4-c]carbazole]	113
O=C1NCc2c1c1c3ccccc3n3c1c1c2c2cc(CO)ccc2n1CC(CO)C3 (centres unmarked) [Cpd 212, 9-hydroxymethyl-12,13-(2-hydroxymethyl-propan-1,3-yl)-6,7,12,13-tetrahydro-5-oxo-5H-indolo[2,3-a]pyrrolo[3,4-c]carbazole]	3
O=C(NCCCN1CCCC1=O)OCC1Cn2c3ccccc3c3c4c(c5c6ccccc6n(c5c32)C1)C(=O)NC4 (centres unmarked) [Cpd 157, 12,13-(2-{[3-(2-oxo-pyrrolidin-1-yl)prop-1-yl]carbamoyloxymethyl}-propan-1,3-yl)-6,7,12,13-tetrahydro-5-oxo-5H-indolo[2,3-a]pyrrolo[3,4-c]carbazole]	> 200
NC1CCN(C(=O)OCC2(O)Cn3c4ccccc4c4c5c(c6c7ccccc7n(c6c43)C2)C(=O)NC5)CC1 (centres unmarked) [Cpd 176, 12,13-{2-hydroxy-2-[(4-amino-piperidin-1-yl)carbonyloxymethyl]-propan-1,3-yl}-6,7,12,13-tetrahydro-5-oxo-5H-indolo[2,3-a]pyrrolo[3,4-c]carbazole]	177
O=C1NCc2c1c1c3cc(CO)ccc3n3c1c1c2c2cc(CO)ccc2n1CC(CO)C3 (centres unmarked) [Cpd 215, 3,9-bis-(hydroxymethyl)-12,13-(2-hydroxymethyl-propan-1,3-yl)-6,7,12,13-tetrahydro-5-oxo-5H-indolo[2,3-a]pyrrolo[3,4-c]carbazole]	8
CN(C)CCN(C)C(=O)OC1CCn2c3ccccc3c3c4c(c5c6ccccc6n(c5c32)C1)C(=O)NC4=O (centres unmarked) [Cpd 67, 12,13-(2-{[N-methyl-N-(2-dimethylamino-ethyl)]carbamoyloxy}-butan-1,4-yl)-12,13-dihydro-5,7-dioxo-6H-indolo[2,3-a]pyrrolo[3,4-c]carbazole]	247
O=C1NC(=O)c2c1c1c3ccccc3n3c1c1c2c2ccccc2n1CC(OC(=O)N1CCN(c2ccccn2)CC1)CC3 (centres unmarked) [Cpd 63, 12,13-{2-[(4-pyridin-2-yl-piperazin-1-yl)carbonyloxy]-butan-1,4-yl}-12,13-dihydro-5,7-dioxo-6H-indolo[2,3-a]pyrrolo[3,4-c]carbazole]	129
CC(C)NC(=O)OC1Cn2c3ccccc3c3c4c(c5c6ccccc6n(c5c32)CC1O)C(=O)NC4=O (centres unmarked) [Cpd 85, 12,13-[2-(prop-2-yl-carbamoyloxy)-3-hydroxy-butan-1,4-yl]-12,13-dihydro-5,7-dioxo-6H-indolo[2,3-a]pyrrolo[3,4-c]carbazole]	14
Cc1ccc(CNC(=O)OC2Cn3c4ccccc4c4c5c(c6c7ccccc7n(c6c43)CC2O)C(=O)NC5=O)o1 (centres unmarked) [Cpd 86, 12,13-(2-{[(5-methyl-furan-2-yl)methyl]carbamoyloxy}-3-hydroxy-butan-1,4-yl)-12,13-dihydro-5,7-dioxo-6H-indolo[2,3-a]pyrrolo[3,4-c]carbazole]	33
